# Measurements taken from US6399660B1, “Aminoethylphenoxyacetic acid derivatives and drugs for pain remission and calculi removal promotion in urinary lithiasis” (Kissei Pharmaceutical Co., Ltd., priority 1997, dated 2002).
# Columns and labels:
# Type in all cases: cell-based
# β2-Adrenoceptor = biological target: T1, β2-Adrenoceptor (Rattus norvegicus, UniProt P10608); assay: β2-Adrenoceptor stimulating effects: inhibition of spontaneous contractions of isolated pregnant rat uterus (Magnus method); conditions: isolated uterus of pregnant SD rats (day 21), cumulative addition every 5 minutes, read-out: EC50 value (concentration required to produce 50% inhibition of uterine contractions), Test Example 1
# T1 construct: Uteri of pregnant SD rats (pregnancy day 21) were isolated and longitudinal smooth muscle strips; from tissue; host or cells: longitudinal smooth muscle strips of pregnant SD rat uterus (day 21)
# Experimental: Uteri of pregnant SD rats (pregnancy day 21) were isolated and longitudinal smooth muscle strips of approximately 15 mm in length and approximately 5 mm in width free from the basal plate were prepared. The experiment was conducted according to the Magnus method. The preparations with a tension of 1 g were exposed to Locke-Ringer solution maintained at 37° C. and gassed with a mixture of 95% oxygen and 5% carbon dioxide. Spontaneous contractions of myometrium were isometrically measured with a force-displacement transducer and recorded by a rectigraph. The drug was cumulatively added to the Magnus bath every 5 minutes. The drug efficacy was evaluated as the concentration of the drug required to produce 50% of the inhibition of uterine contractions (i.e., EC50 value) by comparing the sum of uterine contractions during 5 minutes after the addition of the drug with the sum of uterine contractions during 5 minutes before the addition of the drug (100%).
# β1-Adrenoceptor = biological target: T2, β1-Adrenoceptor (Rattus norvegicus, UniProt P18090); assay: β1-Adrenoceptor stimulating effects: heart rate increase in isolated rat atrium (Magnus method); conditions: isolated atria of male SD rats
# T2 construct: Atria of male SD rats (350 to 400 g in body weight) were isolated; from tissue; host or cells: isolated atria of male SD rats
# Experimental: Atria of male SD rats (350 to 400 g in body weight) were isolated and the experiment was conducted according to the Magnus methods. The preparations with a tension of 1 g were exposed to Krebs-Henseleit solution maintained at 37° C. and gassed with a mixture of 95% oxygen and 5% carbon dioxide. The cardiac contractility was isometrically measured with a force-displacement transducer and recorded by a rectigraph. The drug efficacy was evaluated as the molar concentration required to produce 20 beats/minute increment of the heart rate (i.e., ECΔ20 value).
# β3-Adrenoceptor = β3-Adrenoceptor (Mustela putorius furo, UniProt M3YEU4); assay: β3-Adrenoceptor stimulating effects: inhibition of spontaneous contractions of isolated ferret ureter (Magnus method); conditions: isolated male ferret ureter, cumulative addition every 3 minutes, read-out: EC50 value (concentration required to produce 50% inhibition of ureter contractions), Test Example 2
# Experimental: After removal of connective tissue, longitudinal smooth muscle strips of approximately 20 mm in length were prepared. The experiment was conducted according to the Magnus method. The preparations with a tension of 0.5 g were exposed to Krebs-Henseleit solution maintained at 37° C. and gassed with a mixture of 95% oxygen and 5% carbon dioxide. Spontaneous contractions of ureters were isometrically measured with a force-displacement transducer and recorded by a rectigraph. The drug was cumulatively added to the Magnus bath every 3 minutes.
# T1 sequence (P10608 whole entry): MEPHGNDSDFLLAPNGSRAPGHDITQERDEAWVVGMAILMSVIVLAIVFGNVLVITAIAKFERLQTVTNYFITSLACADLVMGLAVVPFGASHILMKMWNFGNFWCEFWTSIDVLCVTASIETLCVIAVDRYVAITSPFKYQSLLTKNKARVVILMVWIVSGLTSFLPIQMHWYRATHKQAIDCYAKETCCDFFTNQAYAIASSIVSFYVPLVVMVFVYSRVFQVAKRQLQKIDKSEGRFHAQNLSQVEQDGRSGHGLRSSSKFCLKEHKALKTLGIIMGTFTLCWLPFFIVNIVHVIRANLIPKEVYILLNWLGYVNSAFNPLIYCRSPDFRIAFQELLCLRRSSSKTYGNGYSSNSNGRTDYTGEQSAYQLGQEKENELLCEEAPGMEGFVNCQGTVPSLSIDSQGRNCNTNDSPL
# T2 sequence (P18090 whole entry): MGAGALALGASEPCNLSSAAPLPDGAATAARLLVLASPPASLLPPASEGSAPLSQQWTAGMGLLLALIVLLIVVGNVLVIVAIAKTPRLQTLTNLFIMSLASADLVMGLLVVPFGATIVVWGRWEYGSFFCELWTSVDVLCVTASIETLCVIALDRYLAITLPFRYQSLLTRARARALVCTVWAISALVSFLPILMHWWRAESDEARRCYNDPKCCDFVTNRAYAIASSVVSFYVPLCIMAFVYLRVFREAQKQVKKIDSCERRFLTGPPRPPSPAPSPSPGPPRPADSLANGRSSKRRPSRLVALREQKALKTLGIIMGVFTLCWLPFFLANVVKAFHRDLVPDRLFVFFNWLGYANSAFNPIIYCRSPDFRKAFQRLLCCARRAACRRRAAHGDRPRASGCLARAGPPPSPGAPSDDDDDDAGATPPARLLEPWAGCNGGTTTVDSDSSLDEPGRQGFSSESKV
# β3-Adrenoceptor, sequence (M3YEU4 entry or part of it): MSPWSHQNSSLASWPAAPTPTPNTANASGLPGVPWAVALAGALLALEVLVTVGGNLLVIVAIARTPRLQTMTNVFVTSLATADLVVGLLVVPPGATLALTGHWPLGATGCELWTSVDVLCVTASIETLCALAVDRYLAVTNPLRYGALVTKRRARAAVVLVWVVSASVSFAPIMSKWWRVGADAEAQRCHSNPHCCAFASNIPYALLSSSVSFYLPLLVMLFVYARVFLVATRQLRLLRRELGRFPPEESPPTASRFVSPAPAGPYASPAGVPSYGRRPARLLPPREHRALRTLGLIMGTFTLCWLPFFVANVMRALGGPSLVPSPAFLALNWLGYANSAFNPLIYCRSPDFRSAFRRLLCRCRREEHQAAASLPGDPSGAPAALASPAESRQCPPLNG
EC50 (β2-Adrenoceptor) [nM],SMILES,"ECΔ20 value (molar concentration required to produce 20 beats/minute increment of the heart rate), Test Example 3 (β1-Adrenoceptor) [nM]",EC50 (β3-Adrenoceptor) [nM],"ECΔ20 value (molar concentration required to produce 20 beats/minute increment of the heart rate), Test Example 3 (β1-Adrenoceptor; listed as 2-[4-[2-[[(1S,2R)-2-hydroxy-2-(4-hydroxyphenyl)-1-methylethyl]amino]ethyl]phenox) [nM]"
13,"C[C@H](NCCc1ccc(OCC(=O)O)cc1Cl)[C@H](O)c1ccc(O)cc1 [Compound 8, 2-[3-Chloro-4-[2-[[(1S,2R)-2-hydroxy-2-(4-hydroxyphenyl)-1-methyl-ethyl]amino]ethyl]phenoxy]acetic acid]",110,–,–
–,"C[C@H](NCCc1ccc(OCC(=O)O)cc1)[C@H](O)c1ccc(O)cc1 [Compound 9, 2-[4-[2-[[(1S,2R)-2-Hydroxy-2-(4-hydroxyphenyl)-1-methylethyl]-amino]ethyl]phenoxy]acetic acid]",1300,14,1300
3.3,"C[C@H](NCCc1ccc(OCC(=O)OCc2ccccc2)cc1F)[C@H](O)c1ccc(O)cc1.Cl [Compound 7, Benzyl 2-[3-fluoro-4-[2-[[(1S,2R)-2-hydroxy-2-(4-hydroxyphenyl)-1-methylethyl]amino]ethyl]phenoxy]acetate hydrochloride]",300,–,–
39,"C[C@H](NCCc1ccc(OCC(=O)O)cc1F)[C@H](O)c1ccc(O)cc1 [Compound 10, 2-[3-Fluoro-4-[2-[[(1S,2R)-2-hydroxy-2-(4-hydroxyphenyl)-1-methyl-ethyl]amino]ethyl]phenoxy]acetic acid]",1000,–,–
